Reference: the METLIN SMRT retention time set (Domingo-Almenara et al. 2019)

Test: gradient 5% acetonitrile 3 min, to 50% in 2 min, to 85% in 15 min, held 3 min, 100 µL/min
Conditions: column: Zorbax Extend-C18 2.1 x 50 mm; eluents: water / acetonitrile, 0.1% formic acid
In short: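 A Zorbax Extend-C18 column (2.1 × 50 mm, 1.8 μm) run at 100 μL/min with water and acetonitrile, both containing 0.1% formic acid, separated mixtures of ~100 pure standards. The HPLC was coupled to a quadrupole time-of-flight mass spectrometer operated in positive and negative ionization mode, with dead and dwell volumes of 40 μL and 900 μL. Each retention time was taken from a computationally picked adduct peak that was then manually inspected.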

| Structure (SMILES) | RP-LC retention time |
| --- | --- |
| CNC(=O)C1CN(C(=O)Nc2cc(OC)cc(OC)c2)CC12CCCC2 (configuration not stated) | 683 s |
| CCCc1cc(N2CCN(C(=O)c3ccsc3)CC2)nc2nnc(C)n12 | 611 s |
| CSc1ccc(NC(=O)Nc2cccc(-c3ccc(N4CCOCC4)nn3)c2)cc1 | 726 s |
| Cc1cnc(Nc2ccc(N3CCN(C)CC3)cc2)nc1Nc1cccc(S(=O)(=O)NC(C)(C)C)c1 | 608 s |
| CCc1ccc(C2=C(C)C(N3CCCN(C(=O)c4ccncc4)CC3)=NS2(=O)=O)cc1 | 709 s |
| Cc1ccc2c(Nc3ccc(C)c(F)c3)c(C(=O)N3CCSCC3)cnc2n1 | 642 s |
| CCn1cc(-c2nc(C)c(C(=O)Nc3ccc(C)cc3)s2)c2cccnc21 | 784 s |
| COc1ccc(S(=O)(=O)N2CCCC2)cc1C(=O)Nc1cccc2cnccc12 | 598 s |
| CCCCOc1ccc(NC(=O)c2cc(=O)c3cc(C)cc(C)c3o2)c2cccnc12 | 838 s |
| COc1ccc(-c2noc(-c3nn(-c4ccc(Cl)cc4)ccc3=O)n2)cc1 | 877 s |
| CCOc1ncccc1CNS(=O)(=O)c1cccnc1 | 661 s |
| Cn1cc(-c2cc3n(n2)CCC(=O)N3CC(=O)NCC2COCCO2)c2ccccc21 (configuration not stated) | 667 s |
| CNC(=O)C1CCCN(c2nc3ncn(CC(=O)Nc4cc(OC)ccc4OC)c(=O)c3s2)C1 (configuration not stated) | 705 s |
| CCc1nc(-c2cc(S(=O)(=O)N3CCC(C(=O)NCc4ccco4)CC3)c(C)s2)no1 | 932 s |
| CCOC(=O)c1cnc2nc(C)ccc2c1Nc1cc(F)ccc1Cl | 764 s |
| COc1ccc(CNC(=O)C2CCN(Cc3cn(C)c4ccc(OC)cc34)CC2)c(OC)c1 | 672 s |
| O=C(NC1CC1)c1ccc(OCC2CCN(C(=O)c3ccc(F)cc3F)CC2)cc1 | 804 s |
| O=C(NCc1ccc(OC(F)(F)F)cc1)C1CCCN(c2nnc3ccccn23)C1 (configuration not stated) | 727 s |
| Cc1ccccc1-c1nnc(SCC(=O)N2CCC(C)CC2)o1 | 1020 s |
| Cc1ccc(C)c(NC(=O)Cn2c(N3CCCC3)nc(C)cc2=O)c1 | 656 s |
| Cc1ccc(Cn2cccc2C(=O)C(=O)NCc2ccc(C)o2)cc1 | 1080 s |
| CN1c2ccc(F)cc2C(=O)NC12CCN(C(=O)c1ccccc1Cl)CC2 | 751 s |

| Structure (SMILES) | RP-LC retention time |
| --- | --- |
| Cc1cccc(NS(=O)(=O)c2cn(CC(C)C)c3ncccc23)c1 | 960 s |
| Cc1nc(-c2cn(C)c3ncccc23)sc1C(=O)NCc1ccccc1Cl | 942 s |
| Cc1sc(-c2noc(C3CCC3)n2)cc1S(=O)(=O)N1CCC(C(=O)N2CCCCC2)CC1 | 1050 s |
| CCOc1cc(-c2nc(C3CC(=O)N(c4ccc(OC)c(OC)c4)C3)no2)cc(OCC)c1OCC (configuration not stated) | 1060 s |
| Cc1c(Cl)cccc1NC(=O)N1CCc2nc[nH]c2C1 | 592 s |
| CC(C)c1ccc(-n2nc(N3CCN(C(=O)c4cccs4)CC3)ccc2=O)cc1 | 913 s |
| CCCNc1cc(N2CCC(CCC(=O)NC3CCN(C(=O)OCC)CC3)CC2)ncn1 | 627 s |
| CCOC(=O)c1[nH]c(C)c(C(=O)N2CCC(CC(=O)NC(C)CC)CC2)c1C (configuration not stated) | 670 s |
| CC(C)n1cnc2ccc(-c3noc(-c4ccc(F)cc4)n3)cc21 | 742 s |
| Cc1ccc(CNC(=O)C2CCN(c3cn[nH]c(=O)c3)CC2)cc1 | 644 s |
| CN(C)c1nn(CC(=O)NCc2ccc3c(c2)OCO3)c(=O)c2ccccc12 | 765 s |
| Cc1ccc(NC(=O)Cn2nc(N3CCOCC3)c3ccccc3c2=O)c(Cl)c1 | 871 s |
| O=C(CCCn1c(=O)c2cccn2c2ccc(F)cc21)Nc1ccc2c(c1)OCCO2 | 642 s |
| COc1ccc(-c2nc3ncccn3c2Nc2cc(C)cc(C)c2)cc1 | 784 s |
| CCCN1C(=O)COc2ccc(-c3noc(-c4ccc5cc[nH]c5c4)n3)cc21 | 1110 s |
| Cc1cccc(NS(=O)(=O)c2cc(-c3cc(C(F)(F)F)on3)sc2C)c1C | 1240 s |
| CCCCn1cc(S(=O)(=O)Nc2ccc(F)cc2C)c2cccnc21 | 989 s |
| O=C(CC1CCCCC1)NC1CCCN(c2ccc(=O)n(CC3CC3)n2)C1 (configuration not stated) | 836 s |
| CN(C)[C@@H]1CN(C(=O)c2cc3cc(Cl)ccc3[nH]2)C[C@H]1CO | 622 s |
| Cc1ccc(Cn2c(N3CCCC(C(=O)Nc4cc(C)cc(C)c4)C3)nc3ccsc3c2=O)cc1 (configuration not stated) | 1160 s |
| O=C(NCCOc1cccc2cccnc12)c1cnn(-c2ccccc2)n1 | 623 s |
| O=C(Nc1ccc(Cl)cc1)C1CCN(C(=O)c2ncn3c2COC(c2ccc(F)cc2)C3)CC1 (configuration not stated) | 874 s |

| Structure (SMILES) | RP-LC retention time |
| --- | --- |
| CCCn1ccc2oc(C)c(C(=O)NCc3ccc(C(C)C)cc3)c2c1=O | 786 s |
| Cc1cccc(Cn2c(CN3CCC(C(=O)NCc4cccs4)CC3)cc3ccccc32)c1 | 805 s |
| COc1ccc(C2(C(=O)N3CCC(c4nc(-c5cccn5C)no4)C3)CC2)cc1 (configuration not stated) | 910 s |
| CCc1ccc(-c2cc3c(=O)n(Cc4noc(CN5CCCCC5C)n4)ccn3n2)cc1 (configuration not stated) | 761 s |
| CC(Cc1cccs1)NC(=O)Cc1ccc(SC(C)C)cc1 (configuration not stated) | 969 s |
| Cc1ccc(C)c(NC(=O)C2CCCN(c3nc4c(s3)c(C)nn4-c3cccc(F)c3)C2)c1 (configuration not stated) | 1280 s |
| Cc1ccc(-c2nnc(-c3nn(C)c4c3CN(S(=O)(=O)c3ccccc3Cl)CC4)o2)cc1 | 1020 s |
| CC1CCN(c2nccnc2Oc2ccc(C(=O)N3CCN(c4ccccn4)CC3)cc2)CC1 | 711 s |
| O=C(c1cn2ccccc2n1)N1CCN(c2ccccc2F)CC1 | 652 s |
| COc1ccc(CC(=O)NC(CC(C)C)C(=O)Nc2nc3ccccc3[nH]2)c(Cl)c1 (configuration not stated) | 784 s |
| CCCOC(=O)C1=C(C)NC2=C(C(=O)CCC2)C1c1ccc(OC)c(OC)c1OC (configuration not stated) | 791 s |
| O=C(NCCc1ccco1)c1ccc2c(c1)nc1n2CCCCC1 | 611 s |
| Cc1cc(C)c(C(=O)N2CCCC(C(=O)NC3CCCCC3)C2)[nH]1 (configuration not stated) | 809 s |
| O=C(C1CCN(Cc2cnn(-c3ccccc3)c2-n2cccc2)CC1)N1CCN(c2ccccc2)CC1 | 750 s |
| COc1cccc(Cn2c(C(=O)N3CCC(C(=O)NCc4ccc(C)o4)CC3)cc3ccsc32)c1 | 970 s |
| O=C1CCCN1c1ccc(Cn2nc3ccc(-c4ccc(Cl)cc4)nn3c2=O)cc1 | 742 s |
| CC(C)(C)c1ccc(C(=O)Nc2nnc(C3CC(=O)N(c4ccc(F)cc4)C3)o2)cc1 (configuration not stated) | 872 s |
| CCc1ccc(NC(=O)C2(C)Oc3cccnc3N(CC)C2=O)cc1 (configuration not stated) | 982 s |
| NC(=O)c1c(NC(=O)CSc2ncnc3sc4c(c23)CCC4)sc2c1CCC2 | 1100 s |
| O=C(Cn1c(=O)n(-c2ccccc2)c2ncccc21)NCCCN1CCCC1 | 586 s |
| O=C(Cc1nnc2cc(-c3nc(C4CC4)no3)ccn12)N1CCOCC1 | 642 s |
| Cc1noc(-c2ccc(OC3CN(C(=O)c4cccn4C)C3)cc2)n1 | 898 s |

| Structure (SMILES) | RP-LC retention time |
| --- | --- |
| CCc1ccc(C(=O)N2CCN(c3nnc4ccccn34)CC2)cc1 | 681 s |
| COc1ccc(NC(=O)c2c[nH]c3ncccc23)cc1 | 673 s |
| Cc1ccc(C(=O)N2CCN(c3nc(CN4CCOCC4)cs3)CC2)cc1F | 629 s |
| Cc1ccc(NC(=O)Cn2nc3c(Oc4ccc(F)cc4)nccn3c2=O)cc1 | 859 s |
| Cc1sc2ncnc(N3CCCC(C)C3)c2c1C(=O)Nc1cccc(F)c1C (configuration not stated) | 1300 s |
| COc1ccc(-c2nc(-c3cn(-c4cccc(Cl)c4)nn3)no2)c(OC)c1 | 1070 s |
| COc1cccc(C2=NN(C(C)=O)C(c3cccc(Br)c3)O2)c1OC(C)=O (configuration not stated) | 1070 s |
| Cc1nc(-c2cccc(F)c2)sc1C(=O)NC1CC1 | 827 s |
| Cc1ccc(NS(=O)(=O)c2c(-c3nc(C4CCC4)no3)c(C)n(C)c2C)cc1 | 989 s |
| Cc1nc2c(sc3nc(-c4ccccc4)ccc32)c(=O)n1CC(=O)Nc1ccc(F)cc1 | 1040 s |
| O=C(Cn1c(=O)oc2ccccc21)N1CC2CC(C1)c1cccc(=O)n1C2 (configuration not stated) | 588 s |
| CC1=C(c2ccc(C)cc2)S(=O)(=O)N=C1N1CCCN(C(=O)CC(C)C)CC1 | 855 s |
| Cc1ccccc1-c1noc2ncnc(N3CCN(c4ccccn4)CC3)c12 | 673 s |
| CCn1c(C(=O)NCCc2ccccc2)cc2sc(Cl)cc21 | 1160 s |
| CC(=O)N1CCCN(C2=NS(=O)(=O)C(c3ccc(F)cc3)=C2C)CC1 | 690 s |
| CN1CCCCCCN(C(=O)c2cc(CN3CCOCC3)on2)[C@H]2CCC[C@H]2C1=O | 614 s |
| O=c1ccc(-c2ccccc2)nn1Cc1nc(-c2ccc(Cl)cc2)no1 | 1080 s |
| COc1ccc(-c2csc(NC(=O)c3sc(COc4ccc(Cl)c(C)c4)nc3C)n2)cc1 | 1320 s |
| Cc1ccc(-c2noc(CN3N=NC4C(=O)N(c5ccc6c(c5)CCC6)C(=O)C43)n2)cc1 (configuration not stated) | 1110 s |
| CCc1cccc(NC(=O)Cn2c(C)nc3c(sc4nc(-c5ccccc5)ccc43)c2=O)c1 | 1170 s |
| Cc1ccc(Nc2c(-c3ccc(N(C)C)cc3)nc3cnccn23)cc1 | 855 s |
